Assay results published in the NIST ThermoML archive (doi:10.1016/j.jct.2016.07.041).

Assay: xn = mol fraction of the nth substance listed
Details: 101 kPa, Liquid; for viscosity: Capillary tube (Ostwald / Ubbelohde) method; for mass density: Vibrating tube method

NCCO [2-aminoethan-1-ol] + CCCCn1cc[n+](C)c1.F[B-](F)(F)F
Details | mass density, 293.15 K [kg/m3] | mass density, 303.15 K [kg/m3] | mass density, 313.15 K [kg/m3] | mass density, 323.15 K [kg/m3] | mass density, 333.15 K [kg/m3] | viscosity, 293.15 K [mPa·s] | viscosity, 303.15 K [mPa·s] | viscosity, 313.15 K [mPa·s] | viscosity, 323.15 K [mPa·s] | viscosity, 333.15 K [mPa·s]
x2 = 0 | 1015.5 | 1007.6 | 999.7 | 991.7 | 983.6 | 23.65 | 14.75 | 9.78 | 6.81 | 4.99
x2 = 0.1001 | 1065.1 | 1057.3 | 1049.3 | 1041.4 | 1033.4 | 26.23 | 16.27 | 10.72 | 7.39 | 5.38
x2 = 0.2 | 1098.6 | 1090.6 | 1082.8 | 1075 | 1067.2 | 29.02 | 17.98 | 11.84 | 8.21 | 6.02
x2 = 0.2999 | 1123 | 1115.4 | 1107.6 | 1099.8 | 1092.1 | 32.91 | 20.36 | 13.45 | 9.29 | 6.82
x2 = 0.3751 | 1137.9 | 1130.3 | 1122.5 | 1114.8 | 1107.1 | 36.29 | 22.48 | 14.89 | 10.41 | 7.57
x2 = 0.5002 | 1157.4 | 1149.9 | 1142.3 | 1134.7 | 1127.1 | 43.39 | 26.71 | 17.78 | 12.4 | 9.11
x2 = 0.5997 | 1169.7 | 1162.5 | 1154.9 | 1147.4 | 1139.9 | 51.66 | 31.82 | 20.98 | 14.53 | 10.6
x2 = 0.6996 | 1180.2 | 1173 | 1165.4 | 1158.2 | 1150.7 | 61.28 | 37.57 | 24.39 | 17.03 | 12.51
x2 = 0.8 | 1189.4 | 1182.3 | 1174.8 | 1167.5 | 1160.3 | 75.78 | 46.5 | 30.43 | 21.12 | 15.41
x2 = 0.9003 | 1197.8 | 1190.6 | 1183.4 | 1176.1 | 1169.1 | 98.71 | 59.85 | 39.19 | 26.65 | 19.22

NCCO [2-aminoethan-1-ol] + O
Details | mass density, 293.15 K [kg/m3] | mass density, 303.15 K [kg/m3] | mass density, 313.15 K [kg/m3] | mass density, 323.15 K [kg/m3] | mass density, 333.15 K [kg/m3] | viscosity, 293.15 K [mPa·s] | viscosity, 303.15 K [mPa·s] | viscosity, 313.15 K [mPa·s] | viscosity, 323.15 K [mPa·s] | viscosity, 333.15 K [mPa·s]
x1 = 0.0996 | 1010.9 | 1006.8 | 1002.1 | 996.9 | 991.2 | 2.54 | 1.89 | 1.45 | 1.15 | 0.93
x1 = 0.1991 | 1021.6 | 1016.1 | 1010.2 | 1004 | 997.6 | 5.52 | 3.84 | 2.8 | 2.09 | 1.62
x1 = 0.2986 | 1027.4 | 1021 | 1014.4 | 1007.5 | 1000.4 | 10.06 | 6.65 | 4.62 | 3.35 | 2.52
x1 = 0.3977 | 1029.4 | 1022.5 | 1015.4 | 1007.8 | 1000.6 | 15.1 | 9.64 | 6.52 | 4.66 | 3.41
x1 = 0.4967 | 1028.9 | 1021.5 | 1014.2 | 1006.6 | 999 | 19.57 | 12.22 | 8.1 | 5.67 | 4.09
x1 = 0.5958 | 1027 | 1019.4 | 1011.9 | 1004.3 | 996.5 | 22.91 | 14.08 | 9.33 | 6.46 | 4.65
x1 = 0.6946 | 1024.4 | 1016.8 | 1009 | 1001.2 | 993.4 | 24.48 | 15.01 | 9.75 | 6.9 | 4.95
x1 = 0.7932 | 1021.6 | 1013.8 | 1006 | 998.2 | 990.2 | 25 | 15.36 | 9.98 | 6.91 | 4.99
x1 = 0.8919 | 1018.7 | 1010.8 | 1002.9 | 995 | 987 | 24.58 | 15.16 | 9.94 | 6.89 | 4.99
x1 = 1 | 1015.5 | 1007.6 | 999.7 | 991.7 | 983.6 | 23.65 | 14.75 | 9.78 | 6.81 | 4.99

CCCCn1cc[n+](C)c1.F[B-](F)(F)F [1-butyl-3-methylimidazolium tetrafluoroborate] + O
Details | mass density, 293.15 K [kg/m3] | mass density, 303.15 K [kg/m3] | mass density, 313.15 K [kg/m3] | mass density, 323.15 K [kg/m3] | mass density, 333.15 K [kg/m3] | viscosity, 293.15 K [mPa·s] | viscosity, 303.15 K [mPa·s] | viscosity, 313.15 K [mPa·s] | viscosity, 323.15 K [mPa·s] | viscosity, 333.15 K [mPa·s]
x1 = 0.0998 | 1103.7 | 1097.3 | 1090.3 | 1083.4 | 1076.4 | 3.23 | 2.41 | 1.88 | 1.51 | 1.24
x1 = 0.1998 | 1141.5 | 1134.5 | 1126.9 | 1119.6 | 1112.2 | 5.52 | 4.12 | 3.2 | 2.56 | 2.1
x1 = 0.2994 | 1161.1 | 1153.8 | 1146.3 | 1139 | 1131.5 | 8.41 | 6.21 | 4.78 | 3.79 | 3.1
x1 = 0.3992 | 1173.4 | 1166 | 1158.7 | 1151.4 | 1144 | 12.3 | 8.95 | 6.79 | 5.34 | 4.31
x1 = 0.5005 | 1182.3 | 1175 | 1167.7 | 1160.5 | 1153.3 | 17.96 | 12.87 | 9.63 | 7.5 | 6
x1 = 0.5984 | 1188.9 | 1181.6 | 1174.3 | 1167.1 | 1160.1 | 25.98 | 18.1 | 13.27 | 10.11 | 7.99
x1 = 0.6985 | 1194.2 | 1187 | 1179.8 | 1172.6 | 1165.7 | 39.21 | 26.48 | 18.9 | 14.06 | 10.79
x1 = 0.7988 | 1198.5 | 1191.4 | 1184.3 | 1177.1 | 1170 | 59.53 | 38.86 | 26.55 | 19.05 | 14.31
x1 = 0.8982 | 1202 | 1195 | 1187.8 | 1180.6 | 1173.6 | 89.35 | 55.67 | 37.01 | 25.16 | 18.53
x1 = 1 | 1205.1 | 1198 | 1190.8 | 1183.7 | 1176.8 | 139.12 | 82.49 | 52.33 | 35.16 | 24.69
